Source: patent US8802664B2 (Bioproject, priority 2010, dated 2014)

Assays:
human H4 receptor = target: T1, human H4 receptor (Homo sapiens, UniProt Q9H3N8); test: [3H]Histamine binding on membranes of CHO cells stably expressing human H4 receptor
T1 construct: expressed in transfected cells
Method in brief: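 Nonspecific binding defined with 10 μM JNJ 7777120. Bound radioactivity collected on polyethyleneimine-treated GF/B filters and counted by liquid scintillation.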

T1 sequence (Q9H3N8 whole entry): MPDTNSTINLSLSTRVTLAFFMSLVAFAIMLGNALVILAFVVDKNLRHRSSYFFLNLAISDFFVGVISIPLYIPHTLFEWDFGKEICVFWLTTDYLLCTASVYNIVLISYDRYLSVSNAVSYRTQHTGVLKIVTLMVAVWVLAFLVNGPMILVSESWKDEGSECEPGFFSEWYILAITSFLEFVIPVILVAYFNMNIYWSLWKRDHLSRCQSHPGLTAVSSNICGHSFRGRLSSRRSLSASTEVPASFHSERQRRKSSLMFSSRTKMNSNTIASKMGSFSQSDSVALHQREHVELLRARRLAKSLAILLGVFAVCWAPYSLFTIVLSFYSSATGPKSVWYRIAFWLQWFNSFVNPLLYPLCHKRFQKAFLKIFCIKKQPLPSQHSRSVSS

Compound: CN1CCC(OC(c2cccc(-c3ccc(NC(=O)OC(C)(C)C)cc3)c2)c2nc3ccccc3[nH]2)CC1 (stereo not shown) [Example 138, {3′-[(1H-benzimidazol-2-yl)(1-methylpiperidin-4-yloxy)methyl]biphenyl-4-yl}carbamic acid tert-butyl ester]
- melting point: 135 °C
- Ki or IC50 activity class (human H4 receptor): < 300 nM

Compound: CN1CCC(OC(c2cccc(SCCCO)c2)c2nc3ccccc3[nH]2)CC1 (stereo not shown) [Example 246, 3-{3-[(1H-benzimidazol-2-yl)(1-methylpiperidin-4-yloxy)methyl]phenylsulfanyl}propan-1-ol]
- melting point: 97 to 99 °C
- Ki or IC50 activity class (human H4 receptor): < 300 nM

Compound: CC(C)COc1cccc(C(NC2CCN(C)CC2)c2nc3ccccc3[nH]2)c1 (stereo not shown) [Example 67, [(1H-benzimidazol-2-yl)(3-isobutoxyphenyl)methyl](1-methylpiperidin-4-yl)amine]
- melting point: 99 °C
- Ki or IC50 activity class (human H4 receptor): < 30 nM

Compound: Cc1ccc(C(NC2CCN(C)CC2)c2nc3ccccc3[nH]2)cc1 (stereo not shown) [Example 273, [(1H-benzimidazol-2-yl)-p-tolyl-methyl](1-methylpiperidin-4-yl)amine]
- melting point: 183 °C
- Ki or IC50 activity class (human H4 receptor): < 1000 nM

Compound: CCCNC(=O)c1cccc(C(OC2CCN(C)CC2)c2nc3ccccc3s2)c1 (stereo not shown) [Example 220, 3-[benzothiazol-2-yl(1-methylpiperidin-4-yloxy)methyl]-N-propylbenzamide]
- melting point: 60 °C
- Ki or IC50 activity class (human H4 receptor): < 30 nM

Compound: CN1CCC(OC(c2nc3cc(F)ccc3[nH]2)c2cc(C#CCCCN)ccc2F)CC1 (stereo not shown) [Example 558]
- melting point: 90 °C
- Ki or IC50 activity class (human H4 receptor): < 30 nM

Compound: Cc1ccc(C(OC2CCN(C)CC2)c2nc3ccccc3[nH]2)c(O)c1 (stereo not shown) [Example 574]
- melting point: 145 °C
- Ki or IC50 activity class (human H4 receptor): < 30 nM

Compound: CCOC(=O)NCCCC#Cc1ccc(F)c(C(OC2CCN(C)CC2)c2nc3ccccc3[nH]2)c1 (stereo not shown) [Example 560]
- melting point: 87 °C
- Ki or IC50 activity class (human H4 receptor): < 300 nM

Compound: CCCOc1cccc(C(NC2CCN(C)CC2)c2nc3ccccc3[nH]2)c1 (stereo not shown) [Example 50, [(1H-benzimidazol-2-yl)(3-propoxyphenyl)methyl](1-methylpiperidin-4-yl)amine]
- melting point: 143 °C
- Ki or IC50 activity class (human H4 receptor): < 30 nM

Compound: CSc1ccc(O)c(C(OC2CCN(C)CC2)c2nc3ccccc3[nH]2)c1 (stereo not shown) [Example 587]
- melting point: 138 °C
- Ki or IC50 activity class (human H4 receptor): < 30 nM

Compound: CN1CCC(NC(c2ccc[nH]2)c2nc3ccccc3s2)CC1 (stereo not shown) [Example 58, [benzothiazol-2-yl(1H-pyrrol-2-yl)methyl](1-methylpiperidin-4-yl)amine]
- melting point: 125 °C
- Ki or IC50 activity class (human H4 receptor): < 300 nM

Compound: CCCOc1cccc(C(NC2CCN(C)CC2)c2nc3ccccc3s2)c1 (stereo not shown) [Example 42, [benzothiazol-2-yl(3-propoxyphenyl)methyl](1-methylpiperidin-4-yl)amine]
- melting point: 90 °C
- Ki or IC50 activity class (human H4 receptor): < 30 nM

Compound: CN1CCC(OC(c2cccc(SCCCCO)c2)c2nc3cc(F)c(F)cc3[nH]2)CC1 (stereo not shown) [Example 470]
- melting point: 60 °C
- Ki or IC50 activity class (human H4 receptor): < 300 nM

Compound: CN1CC=C(SC(c2cccc(Br)c2)c2nc3ccccc3[nH]2)CC1 (stereo not shown) [Example 530, 2-[(3-bromophenyl)(1-methyl-1,2,3,6-tetrahydropyridin-4-ylsulfanyl)methyl]-1H-benzimidazole]
- melting point: 189 °C
- Ki or IC50 activity class (human H4 receptor): < 1000 nM

Compound: CN1CCC(OC(c2nc3ccccc3[nH]2)c2cc(SCCF)ccc2O)CC1 (stereo not shown) [Example 614]
- melting point: 127 °C
- Ki or IC50 activity class (human H4 receptor): < 30 nM

Compound: CN1CCC(OC(c2nc3ccccc3[nH]2)c2c(F)cc(Cl)cc2F)CC1 (stereo not shown) [Example 527]
- melting point: 195 °C
- Ki or IC50 activity class (human H4 receptor): < 30 nM

Compound: CN1CCC(OC(c2nc3ccccc3[nH]2)c2cc(Oc3ccccc3)ccc2O)CC1 (stereo not shown) [Example 609]
- melting point: 140 °C
- Ki or IC50 activity class (human H4 receptor): < 300 nM
